In patent US20120029196A1, “PURIFICATION 4-AZA-ANDROST-1-ENE-17-OIC ACID FROM 4-AZA-ANDROSTAN-17-OIC ACID” (PHF S.A., priority 2009, published 2012):

Experiment: solubility in solvents at 25° C.
Type: physicochemical
[1] = solvent Toluene, LOD = Limit Of Detection

Structure (SMILES): C[C@]12CC[C@H]3[C@@H](CCC4NC(=O)C=C[C@@]43C)[C@@H]1CC[C@@H]2C(=O)O (stereo partly drawn) [Intermediate 1]
- solubility at 25° C. (solvent Acetic Acid): 8.1 % w/w
- solubility at 25° C. (solvent Acetone): 0.06 % w/w
- solubility at 25° C. (solvent DMF): 2.4 % w/w
- solubility at 25° C. (solvent Ethyl acetate): 0.02 % w/w
- solubility at 25° C. (solvent Formic Acid): 7.7 % w/w
- solubility at 25° C. (solvent MTBE): 0.009 % w/w
- solubility at 25° C. (solvent Methanol): 0.6 % w/w
- solubility at 25° C. (solvent Methylene chloride): 0.04 % w/w
- solubility at 25° C. (solvent Propionic Acid): 6.6 % w/w
- solubility at 25° C. [1]: <LOD

Structure (SMILES): C[C@]12CC[C@H]3[C@@H](CCC4NC(=O)CC[C@@]43C)[C@@H]1CC[C@@H]2C(=O)O (stereo partly drawn) [Intermediate 2]
- solubility in formic acid (comparison in words) (formic acid): higher than Intermediate 1
- solubility at 25° C. (solvent Acetic Acid): 3.69 % w/w
- solubility at 25° C. (solvent Acetone): 0.008 % w/w
- solubility at 25° C. (solvent DMF): 0.40 % w/w
- solubility at 25° C. (solvent Ethyl acetate): 0.003 % w/w
- solubility at 25° C. (solvent Formic Acid): 20.32 % w/w
- solubility at 25° C. (solvent MTBE): 0.001 % w/w
- solubility at 25° C. (solvent Methanol): 0.16 % w/w
- solubility at 25° C. (solvent Methylene chloride): 0.008 % w/w
- solubility at 25° C. (solvent Propionic Acid): 3.10 % w/w
- solubility at 25° C. [1]: <LOD
